According to patent US20180353501A1 (Arvinas, Inc., priority 2017, published 2018):
Where “and” joins values, the source holds several entries; their conditions need not be identical. Identical values can stand only once. Like-named read-outs stand apart in the source and are kept apart here.

Legend:
[1] = target: T1, p38δ:PROTAC:VHL ternary complex (Homo sapiens, UniProt O15264+P40337); experiment: SPR ternary complex affinity and kinetics; type: binding; conditions: for Kd: equimolar p38δ:PROTAC injected onto immobilized GST-VBC
T1 construct: encoding a region spanning amino acids 1-365 was PCR-amplified; His6 (N); made in house; host or cells: E. coli (BL21-CodonPlus(DE3)-RIPL for p38δ; BL21(DE3) for GST-VBC)
T1 sequence (O15264 whole entry, the tested form may be a part): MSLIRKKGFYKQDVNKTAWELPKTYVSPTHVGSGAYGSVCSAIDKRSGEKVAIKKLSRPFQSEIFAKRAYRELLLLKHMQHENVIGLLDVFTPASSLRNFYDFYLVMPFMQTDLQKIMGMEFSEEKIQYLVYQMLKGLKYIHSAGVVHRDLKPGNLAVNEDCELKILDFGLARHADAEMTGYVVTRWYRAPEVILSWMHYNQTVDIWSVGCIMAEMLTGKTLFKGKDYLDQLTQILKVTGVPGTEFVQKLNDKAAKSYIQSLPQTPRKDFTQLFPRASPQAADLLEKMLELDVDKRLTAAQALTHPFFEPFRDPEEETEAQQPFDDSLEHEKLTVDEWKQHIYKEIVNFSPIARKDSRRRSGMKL
T1 sequence (P40337 whole entry, the tested form may be a part): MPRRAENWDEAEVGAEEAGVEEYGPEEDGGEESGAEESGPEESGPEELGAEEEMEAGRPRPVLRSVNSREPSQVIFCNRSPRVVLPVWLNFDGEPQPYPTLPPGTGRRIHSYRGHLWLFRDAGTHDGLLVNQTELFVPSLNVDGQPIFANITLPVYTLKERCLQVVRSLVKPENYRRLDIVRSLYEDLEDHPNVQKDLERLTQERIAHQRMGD
T1 sequence (Q15370 whole entry partner, the tested form may be a part): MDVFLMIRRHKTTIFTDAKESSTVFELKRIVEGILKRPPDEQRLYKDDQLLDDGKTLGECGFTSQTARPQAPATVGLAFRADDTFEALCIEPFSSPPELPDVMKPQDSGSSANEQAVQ
T1 sequence (Q15369 whole entry partner, the tested form may be a part): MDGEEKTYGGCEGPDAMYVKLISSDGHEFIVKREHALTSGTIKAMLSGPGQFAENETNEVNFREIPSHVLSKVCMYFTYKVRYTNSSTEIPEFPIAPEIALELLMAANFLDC
Protocol: FIGS. 16A, 16B, and 16C. SPR curves assessing binary and ternary interactions. […] (C) SPR kinetic evaluation of p38δ:compound 46:VHL and p38δ:compound 50:VHL ternary complex interactions. Equimolar p38δ:PROTAC mixtures were injected onto immobilized GST-VBC and allowed to dissociate overtime. […] See Table 12 for a summary of the binary and ternary affinity and kinetic measurements.
Next, with the same setup, equimolar p38δ:PROTAC dilutions were successively injected onto immobilized VHL for 60 seconds, prior to monitoring complex dissociation for the remaining 300 seconds. This SPR strategy enabled us to determine effective ternary affinities for a given p38δ:PROTAC:VHL complex and compare the relative affinity change that occurs between VHL:PROTAC when p38δ is present in the mixture. […] This “enhanced” composite affinity is likely due to the additional PPIs between VHL and p38δ when in the presence of exemplary compound 46.
SPR experiments were conducted on a Biacore 3000 instrument (GE Healthcare) at room temperature. GST antibody was immobilized through direct amination onto a carboxymethylated dextran surface (CM5) and GST-VBC was captured on the CM5 surface. This prepared surface was equilibrated over three hours in running buffer (10 mM HEPES buffer pH 7.4, 150 mM NaCl, 0.4 mg mL^−1 BSA, 0.005% P20, 2% DMSO). All compounds were prepared in 100% DMSO stock plates with a top concentration of 500 μM in a 3× serial dilution. Exemplary compounds were transferred from the stock plate to the assay plate and diluted into running buffer without DMSO. Equimolar concentration of target protein was added to corresponding compound wells. All exemplary compounds were run as a twelve point-concentration series with a final assay top concentration of 50 μM to measure p38δ:PROTAC and VHL:PROTAC binding and top concentration of 5 μM to measure p38δ:PROTAC:VHL binding. All exemplary compounds were injected for 60 seconds and allowed to dissociate for 300 seconds. Data analysis was performed in Scrubber 2 (BioLogic Software). Blanks from reference flow cell containing immobilized GST-VBC were subtracted to correct for noise and data was solvent-corrected against a standard DMSO curve.

[2] = system: p38α and p38δ mRNA; experiment: Quantitative real-time PCR in MDA-MB-231 cells; type: cell-based; conditions: 250 nM, 24 hours
Protocol: FIGS. 13A, 13B, 13C, and 13D. Exemplary compounds 50 and 46 degrade p38 isoforms in a manner that is rapid, sustained, and proteasome-dependent. (A) MDA-MB-231 cells were either pre-treated or not with the proteasome inhibitor epoxomicin (1 μM) or the neddylation inhibitor MLN4924 (1 μM) for 30 minutes and subsequently treated with either vehicle (DMSO), exemplary compound 50 (250 nM), or exemplary compound 46 (250 nM) for 6 hours. (B) Quantitative real-time PCR was performed after 24 hours of treatment with either vehicle (DMSO), exemplary compound 50 (250 nM), or exemplary compound 46 (250 nM) in MDAMB-231 cells. […]
MDA-MB-231 cells were plated at 3×10^5 cells per well in a 6-well dish, allowed to adhere, and were treated with either vehicle (DMSO) or PROTAC (250 nM) for 24 hours. […] RNA pellet was washed twice with 75% EtOH and allowed to air dry for 15 minutes, after which RNA was dissolved in 25 μL of nuclease-free H2O. cDNA was synthesized from 4 μg of total RNA per condition according to the manufacturer's protocol (Applied Biosystems) and real-time PCR was performed with 800 nM primers, diluted with 4 μL SYBR Green Reaction Mix (Applied Biosystems). qRT-PCR samples were performed and analyzed in triplicate, from two independent experiments. […]

[3] = SPR, immobilized GST-VBC, listed as Ex. 50

What does the source list for `COc1cc2c(Oc3ccc(NC(=O)C4(C(=O)Nc5ccc(F)cc5)CC4)cc3F)ccnc2cc1OCCOCCOCCOc1cc(-c2scnc2C)ccc1CNC(=O)[C@@H]1C[C@@H](O)CN1C(=O)[C@H](C(C)C)N1Cc2ccccc2C1=O` [compound 46]?
leftward shift of ternary affinity from the VHL:PROTAC binary affinity ([1]; SPR): ~8 fold; koff ([1]; SPR, immobilized GST-VBC): 0.0175 s⁻¹; kon ([1]; SPR, immobilized GST-VBC): 39600 M⁻¹ s⁻¹; residence time ([1]; SPR, immobilized GST-VBC): 5.5 min; p38δ:PROTAC:VHL kon ([1]; SPR, immobilized GST-VBC, listed as Ex. 46): 39621 M⁻¹ s⁻¹; Kd ([1]; read-out: p38δ:PROTAC:VHL Kd): 436 nM; change in mRNA for either p38 isoform [2]: no significant changes in mRNA

What does the source list for `COc1cc2c(Oc3ccc(NC(=O)C4(C(=O)Nc5ccc(F)cc5)CC4)cc3F)ccnc2cc1OCCCCOCCCCOCC(=O)N[C@H](C(=O)N1C[C@H](O)C[C@H]1C(=O)NCc1ccc(-c2scnc2C)cc1)C(C)(C)C` [compound 50, N-(3-fluoro-4-((7-(4-(4-(2-(((S)-1-((2S,4R)-4-hydroxy-2-((4-(4-methylthiazol-5-yl)benzyl)carbamoyl)pyrrolidin-1-yl)-3,3-dimethyl-1-oxobutan-2-yl)amino)-2-oxoethoxy)butoxy)buto-xy)-6-methoxyquinolin-4-yl)oxy)phenyl)-N-(4-fluorophenyl)cyclopropane-1,1-dicarboxa-mide]?
off-rate quicker than the p38δ:compound 46:VHL complex ([1]; SPR): ~5 fold; residence time shorter than the p38δ:compound 46:VHL complex ([1]; SPR): ~4 fold; ternary affinity weaker than the exemplary compound 46-induced complex ([1]; SPR): ~3 fold; kon ([1]; SPR, immobilized GST-VBC): 70100 M⁻¹ s⁻¹; residence time ([1]; SPR, immobilized GST-VBC): 1.33 min; p38δ:PROTAC:VHL koff [1, 3]: 0.072 s⁻¹; p38δ:PROTAC:VHL kon [1, 3]: 70119 M⁻¹ s⁻¹; Kd ([1]; read-out: p38δ:PROTAC:VHL affinity): 1200 nM and > 1000 nM; change in mRNA for either p38 isoform [2]: no significant changes in mRNA
